This note sets out measurements from patent publication US8987474B2 (University of South Florida, priority 2006, dated 2015).

This assay concerns the target Shp2 (Homo sapiens (Human), UniProt Q06124). The assay is described as follows: PTP activity assay (DiFMUP substrate) with GST-Shp2. The class given is biochemical. The following applies: for IC50: Table II, Shp2. An excerpt:
All constructs were verified by DNA sequencing.
Recombinant DEP1 was from Abcam.

Where only a bound is given, the exact number is not on record here.

Sequence of Shp2 (Q06124 205-593): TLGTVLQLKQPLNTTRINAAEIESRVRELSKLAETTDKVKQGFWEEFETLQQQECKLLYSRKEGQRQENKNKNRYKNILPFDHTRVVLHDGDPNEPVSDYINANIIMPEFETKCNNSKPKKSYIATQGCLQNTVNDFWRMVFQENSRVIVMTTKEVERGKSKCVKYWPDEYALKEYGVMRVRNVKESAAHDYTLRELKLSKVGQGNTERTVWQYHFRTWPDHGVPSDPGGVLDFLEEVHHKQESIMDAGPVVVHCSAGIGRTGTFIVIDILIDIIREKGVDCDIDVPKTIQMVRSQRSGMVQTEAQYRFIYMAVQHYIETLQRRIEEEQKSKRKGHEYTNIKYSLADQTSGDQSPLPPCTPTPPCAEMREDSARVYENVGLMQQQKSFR

For `O=C1Nc2ccc(S(=O)(=O)NCc3ccc(Cl)cc3)cc2/C1=N/Nc1ccccc1Cl` [HL2-016-4], for the setting “concentration not given”, the “% PTP activity” value is given as 32 ± 17% (12).

`O=C1Nc2ccc(S(=O)(=O)O)cc2/C1=N/Nc1ccccc1F` [RPM220, 2-Oxo-3-[(2-fluorophenylhydrazono)]-2,3-dihydro-1H-indole-5-sulfonic acid]: the “% PTP activity” value (at 20 μM) is reported as 73 ± 10% (3) at 20 μM.

Broadly, the IC50 is the concentration that gives 50% inhibition. Low values mean higher potency, high ones lower potency. With `O=C1Nc2ccc(C(=O)O)cc2/C1=N/Nc1ccccc1F` [RPM319], the half-inhibitory concentration (IC50) is over 100 µM. In addition, the “% PTP activity” value (at 20 μM) is given as 49 ± 4% (2) At 20 μM.

`CCN1C(=O)/C(=N\Nc2ccccc2[N+](=O)[O-])c2cc(S(=O)(=O)N(C)C)ccc21` [RPM176, 1-Ethyl-3-[(2-nitro-phenyl)-hydrazono]-2-oxo-2,3-dihydro-1H-indole-5-sulfonic acid dimethylamide]: the “% PTP activity” value (concentration not given) was 50% ± 5% (6).

As to `CC(C)NS(=O)(=O)c1ccc2c(c1)/C(=N/Nc1cccc(C(=O)NCc3ccco3)c1)C(=O)N2` [RPM333, N-Furan-2-ylmethyl-3-[′-(5-isopropylsulfamoyl-2-oxo-1,2-dihydro-indol-3-ylidene)hydrazino]benzamide], the IC50 is 33 to 100 µM. For the setting “at 20 μM”, the “% PTP activity” value is 48 ± 9% (2) at 20 μM.

Regarding `CCOC(=O)c1cccc(N/C=C2\C(=O)Nc3ccc(S(=O)(=O)NC(C)C)cc32)c1` [RPM302, 3-[(5-Isopropylsulfamoyl-2-oxo-1,2-dihydro-indol-3-ylidenemethyl)amino]benzoic acid ethyl ester], the IC50 fell in the range of 33 to 100 µM. Also, the “% PTP activity” value (at 20 μM) is on record as 51 ± 7% (2) at 20 μM.

`CN(C)S(=O)(=O)c1ccc2c(c1)/C(=N/Nc1ccccc1[N+](=O)[O-])C(=O)N2Cc1ccccc1` [RPM156]: the “% PTP activity” value (concentration not given) is 34 ± 4% (12).

Regarding `CC(C)NS(=O)(=O)c1ccc2c(c1)/C(=N/Nc1ccccc1C(=O)NCCN1CCOCC1)C(=O)N2` [RPM293, 2-[N′-(5-Isopropylsulfamoyl-2-oxo-1,2-dihydro-indol-3-ylidene)hydrazino]-N-(2-morpholin-4-yl-ethyl)benzamide], where the note is “at 20 μM”, the “% PTP activity” value is reported as 49 ± 6% (2) At 20 μM.

For the compound `COc1ccc(CNS(=O)(=O)c2ccc3c(c2)/C(=N/Nc2ccccc2[N+](=O)[O-])C(=O)N3)cc1` [RPM138, 3-[(2-Nitrophenyl)hydrazono]-2-oxo-2,3-dihydro-1H-indole-5-sulfonic acid 4-methoxybenzylamide], where the note is “concentration not given”, the “% PTP activity” value was 36 ± 4% (6).

Regarding `CC(C)NS(=O)(=O)c1ccc2c(c1)/C(=N/Nc1ccccc1C(=O)N(C)C)C(=O)N2` [RPM294, 2-[N′-(5-Isopropylsulfamoyl-2-oxo-1,2-dihydro-indol-3-ylidene)hydrazino]-N,N-dimethylbenzamide], the “% PTP activity” value (at 20 μM) was 48 ± 0% (2) At 20 μM.

Consider `O=C1Nc2ccc(S(=O)(=O)NCc3ccc(Cl)cc3)cc2/C1=C/Nc1ccccc1[N+](=O)[O-]` [RPM310], for which the “% PTP activity” value (at 20 μM) was 66.20% (1) At 20 μM.

In the case of `O=C1Nc2ccc(S(=O)(=O)O)cc2/C1=N/Nc1nc2ccccc2s1` [HL1-058-3], the IC50 lay in the range of 33 to 100 µM. In addition, the “% PTP activity” value (concentration not given) was 46 ± 4% (3).

For `CC(C)NS(=O)(=O)c1ccc2c(c1)/C(=N/Nc1cccc(C(=O)NCCN(C)C)c1)C(=O)N2` [RPM326, N-(2-Dimethylamino-ethyl)-3-[N′-(5-isopropylsulfamoyl-2-oxo-1,2-dihydro-indol-3-ylidene)hydrazino]benzamide], where the note is “at 20 μM”, the “% PTP activity” value was 57 + 13% (2) at 20 μM.

Consider `CN(C)CCNS(=O)(=O)c1ccc2c(c1)/C(=N/Nc1ccccc1[N+](=O)[O-])C(=O)N2` [RPM146, 3-[(2-Nitrophenyl)hydrazono]-2-oxo-2,3-dihydro-1H-indole-5-sulfonic acid (2-dimethylaminoethyl)amide], for which the “% PTP activity” value (concentration not given) is 57 ± 6% (6).

In the case of `O=C1Nc2ccc(S(=O)(=O)O)cc2/C1=N/Nc1cc(Cl)ccc1Cl` [RPM225, 2-Oxo-3-[(2,5-dichlorophenylhydrazono)]-2,3-dihydro-1H-indole-5-sulfonic acid], the IC50 was in the range of 33 to 100 µM. Moreover, the “% PTP activity” value (at 20 μM) is 73 ± 22% at 20 μM.

Regarding `CCCNS(=O)(=O)c1ccc2c(c1)/C(=N/Nc1ccccc1Cl)C(=O)N2` [HL2-016-9], the “% PTP activity” value (concentration not given) is given as 48 ± 1% (6).

Consider `CCOC(=O)c1cccc(NC(=O)c2ccc3cc(C(=O)OC)ccc3c2)c1` [HL2-022-1-Intermediate], for which, under “concentration not given”, the “% PTP activity” value is 68 ± 20% (7).

`COC(=O)c1ccccc1/C=C1\C(=O)Nc2ccc(S(=O)(=O)NC(C)C)cc21` [RPM347, 2-(5-Isopropylsulfamoyl-2-oxo-1,2-dihydro-indol-3-ylidenemethyl)benzoic acid methyl ester]: under “at 20 μM”, the “% PTP activity” value is reported as 48 ± 9% (2) At 20 μM.

Regarding `COC(=O)c1ccc2cc(C(=O)Nc3ccc(S(N)(=O)=O)cc3)ccc2c1` [RPM187], the “% PTP activity” value (at 20 μM) was 66 ± 4% (3) at 20 uM.

Turning to `O=C1Nc2ccc(S(=O)(=O)NCc3ccncc3)cc2/C1=N/Nc1ccccc1Cl` [HL2-016-15], the “% PTP activity” value (concentration not given) was 48 ± 5% (6).

As for `CN(C)S(=O)(=O)c1ccc2c(c1)/C(=N/Nc1ccccc1Cl)C(=O)N2` [HL2-016-1], under “concentration not given”, the “% PTP activity” value was 36 ± 11% (12).

For `O=C1Nc2ccc(S(=O)(=O)NCC3CCCO3)cc2/C1=N/Nc1ccccc1[N+](=O)[O-]` (stereo not drawn) [RPM172, 3-[(2-Nitrophenyl)hydrazono]-2-oxo-2,3-dihydro-1H-indole-5-sulfonic acid (tetrahydrofuran-2-ylmethyl)amide], under “concentration not given”, the “% PTP activity” value was 35 ± 5% (12).

Turning to `CC(C)NS(=O)(=O)c1ccc2c(c1)/C(=N/Nc1ccccc1C(N)=O)C(=O)N2` [RPM283, 2-[N′-(5-Isopropylsulfamoyl-2-oxo-1,2-dihydro-indol-3-ylidene)hydrazino]benzamide], where the note is “at 20 μM”, the “% PTP activity” value was 52 ± 7% (2) At 20 μM.

For `COCCNC(=O)c1cccc(N/N=C2\C(=O)Nc3ccc(S(=O)(=O)NC(C)C)cc32)c1` [RPM327, 3-[N′-(5-Isopropylsulfamoyl-2-oxo-1,2-dihydro-indol-3-ylidene)hydrazino]-N-(2-methoxyethyl)benzamide], the “% PTP activity” value (at 20 μM) is reported as 44 + 7% (2) at 20 μM.

For `O=C1Nc2ccc(S(=O)(=O)NCc3cccs3)cc2/C1=N/Nc1ccccc1Cl` [HL2-016-6], the “% PTP activity” value (concentration not given) is listed as 51 ± 3% (6).

As for `O=C1Nc2ccc(S(=O)(=O)NCC3CCCO3)cc2/C1=N/Nc1ccccc1Cl` (stereo not drawn) [HL2-016-14], for the setting “concentration not given”, the “% PTP activity” value is 42 ± 5% (6).

For the compound `CC(C)NS(=O)(=O)c1ccc2c(c1)/C(=N/Nc1ccccc1C(=O)NCc1ccccc1)C(=O)N2` [RPM287, N-Benzyl-2-[N′-(5-isopropylsulfamoyl-2-oxo-1,2-dihydro-indol-3-ylidene)hydrazino]benzamide], under “at 20 μM”, the “% PTP activity” value is 48 ± 10% (2) At 20 μM.

As for `CCc1ccccc1N/N=C1\C(=O)Nc2ccc(C(=O)O)cc21` [RPM320, 3-[(2-Ethylphenyl)hydrazono]-2-oxo-2,3-dihydro-1H-indole-5-carboxylic acid], the “% PTP activity” value (at 20 μM) is 44 ± 5% (2) At 20 μM.

`CCNC(=O)c1ccccc1N/N=C1\C(=O)Nc2ccc(S(=O)(=O)NC(C)C)cc21` [RPM296, N-Ethyl-2-[N′-(5-isopropylsulfamoyl-2-oxo-1,2-dihydro-indol-3-ylidene)hydrazino]benzamide]: the “% PTP activity” value (at 20 μM) was 48 ± 2% (2) At 20 μM.

Take `O=C1Nc2ccc(S(=O)(=O)NCN3CCOCC3)cc2/C1=N/Nc1ccccc1Cl` [HL2-016-8]: the “% PTP activity” value (concentration not given) was 41 ± 4% (6).

`CCc1ccccc1N/N=C1\C(=O)Nc2ccc(S(=O)(=O)O)cc21` [RPM219, 2-Oxo-3-[(2-ethylphenylhydrazono)]-2,3-dihydro-1H-indole-5-sulfonic acid]: the IC50 fell in the range of 33 to 100 µM. Moreover, where the note is “at 20 μM”, the “% PTP activity” value is reported as 89 ± 2% (3) at 20 μM.

Turning to `CN(Cc1ccccc1)S(=O)(=O)c1ccc2c(c1)/C(=N/Nc1ccccc1Cl)C(=O)N2` [HL2-016-16], the “% PTP activity” value (concentration not given) was 64 ± 12% (6).

On to `O=C1Nc2ccc(S(=O)(=O)NCc3ccco3)cc2/C1=N/Nc1ccccc1Cl` [HL2-016-11], for which the “% PTP activity” value (concentration not given) is on record as 55 ± 7% (6).

`CC(C)NS(=O)(=O)c1ccc2c(c1)/C(=N/Nc1ccccc1C(=O)NCc1ccco1)C(=O)N2` [RPM292, N-Furan-2-ylmethyl-2-[N′-(5-isopropylsulfamoyl-2-oxo-1,2-dihydro-indol-3-ylidene)hydrazino]benzamide] came in with a half-maximal inhibitory concentration (IC50) of 33 to 100 µM. Under “at 20 μM”, the “% PTP activity” value is 47 ± 7% (20 At 20 μM.

The compound `O=C1Nc2ccc(S(=O)(=O)O)cc2/C1=N/Nc1c(F)c(F)c(F)c(F)c1F` [RPM222, 2-Oxo-3-(pentafluorophenylhydrazono)-2,3-dihydro-1H-indole-5-sulfonic acid] returned an IC50 of 33 to 100 µM. Besides, the “% PTP activity” value (at 20 μM) is recorded as 58 ± 6% (3) at 20 μM.

The compound `O=C1Nc2ccc(C(=O)O)cc2/C1=N/Nc1ccccc1Cl` [RPM270] yielded an IC50 of 33 to 100 µM. For the same compound, the “% PTP activity” value (at 20 μM) is recorded as 45 ± 18% (2) At 20 μM.

With `CCN(CC)C(=O)c1ccc2c(c1)/C(=N/Nc1ccccc1C(=O)O)C(=O)N2` [HL2-070-1], where the note is “at 20 μM”, the “% PTP activity” value was 100.18% (1) at 20 μM.

For the compound `CCCNS(=O)(=O)c1ccc2c(c1)/C(=N/Nc1ccccc1[N+](=O)[O-])C(=O)N2` [RPM170, 3-[(2-Nitrophenyl)-hydrazono]-2-oxo-2,3-dihydro-1H-indole-5-sulfonic acid propylamide], the “% PTP activity” value (concentration not given) is recorded as 43 ± 8% (12).

As for `O=C1Nc2ccc(S(=O)(=O)O)cc2/C1=N/Nc1ccccc1C(F)(F)F` [RPM221, 2-Oxo-3-[(2-trifluoromethylphenylhydrazono)]-2,3-dihydro-1H-indole-5-sulfonic acid], the IC50 lay within 33 to 100 µM. The “% PTP activity” value (at 20 μM) is 63 ± 4% (3) at 20 μM.

As to `O=C(O)c1cc(NC(=O)c2ccc3cc(C(=O)O)ccc3c2)cc(C(=O)O)c1` [HL2-026], the “% PTP activity” value (concentration not given) is reported as 87 ± 14% (6).

As to `O=C(O)c1ccc(NC(=O)c2ccc3cc(C(=O)O)ccc3c2)cc1` [RPM194], the “% PTP activity” value (at 20 μM) is given as 69 ± 7.5% (3) at 20 uM.

On to `O=C1Nc2ccc(S(=O)(=O)N3CCOCC3)cc2/C1=N/Nc1ccccc1[N+](=O)[O-]` [RPM177], for which the “% PTP activity” value (concentration not given) is reported as 36 ± 8% (6).

Compound `CC(C)NS(=O)(=O)c1ccc2c(c1)/C(=N/Nc1ccccc1C(=O)NCc1cccnc1)C(=O)N2` [RPM290, 2-[N′-(5-Isopropylsulfamoyl-2-oxo-1,2-dihydro-indol-3-ylidene)hydrazino]-N-pyridin-3-ylmethylbenzamide] gave a half-inhibitory concentration (IC50) of 33 to 100 µM. The “% PTP activity” value (at 20 μM) is reported as 46 ± 2% (2) At 20 μM.
